These results are taken from patent publication US20250340561A1, “QUINAZOLINE COMPOUND FOR INDUCING DEGRADATION OF G12D MUTANT KRAS PROTEIN” (Astellas Pharma Inc., priority 2021, published 2025).

Each structure is given as a SMILES string.

Usually DC50 stands for the concentration at which degradation of the target reaches its halfway point. A low value points to a more potent degrader.

The target of the test is T1, KRAS G12D (Homo sapiens, UniProt P01116, G12D).
T1 construct: host or cells: AsPC-1 human pancreatic cancer cells
T1 sequence (P01116 1-188 isoform P01116-2 G12D): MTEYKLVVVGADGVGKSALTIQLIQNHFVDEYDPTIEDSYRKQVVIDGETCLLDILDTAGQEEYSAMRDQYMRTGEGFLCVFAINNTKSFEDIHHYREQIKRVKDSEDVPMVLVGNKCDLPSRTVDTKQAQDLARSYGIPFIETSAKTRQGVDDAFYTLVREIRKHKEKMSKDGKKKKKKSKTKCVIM
Description: Test Example 1-2: KRAS degradation action in AsPC-1, Cell ELISA. In kind it is cell-based. As to conditions: AsPC-1 cells, overnight treatment, corrected with β-actin, 0% = 10 μM Example No. 26 (Example No. 8 for Example Nos. 74 and 75). The procedure: Test Example 1-2: Evaluation of KRAS Degradation Action on Human G12D Mutant KRAS-Positive Pancreatic Cancer Line AsPC-1
The KRAS degradation action of test compounds was evaluated by measuring the expression levels of KRAS G12D by Cell ELISA.
[…] As for the cell culture conditions, a RPMI 1640 medium containing 10% fetal bovine serum was used in the presence of 5% CO2 at 37° C. The next day, the test compounds (10 points having final concentrations in the range of 10 μM to 0.3 nM), the compound of Example No. 26 (Example No. 8 for Example Nos. 74 and 75) of a final concentration of 10 μM as a positive control and DMSO, which was the solvent for the test compounds, as a negative control were diluted 500-fold with a fresh medium and were added at 20 μL per well. The cells were cultured overnight.
The next day, the culture supernatant was removed, and 4% paraformaldehyde phosphate buffer (from FUJIFILM Wako Pure Chemical Corporation) was added at 20 μL per well. The plate was allowed to stand for 30 minutes at room temperature to thus immobilize the cells. Then, the supernatant was removed, and 0.1% Triton X-100 (from Amersham Biosciences)-containing PBS was added at 20 μL per well. After allowing to stand for 10 minutes at room temperature, the supernatant was removed. PBS was added at 25 μL per well, and the supernatant was removed to thus wash each well. The washing was performed twice in total. Next, the supernatant was removed, and 0.5% sodium dodecyl sulfate (SDS; from Invitrogen)-containing PBS was added at 20 μL per well. After allowing to stand at room temperature for 10 minutes, the supernatant was removed by centrifugation (using a centrifugal dehydrator machine, the supernatant was removed by the same method hereinafter). PBS was added at 25 μL per well, and the supernatant was removed to thus wash each well. The washing was performed twice in total. The supernatant was removed by centrifugation, and a blocking solution (Intercept Blocking Buffer) was added at 20 μL per well. After allowing to stand for 30 minutes at room temperature, the supernatant was removed by centrifugation, and a solution obtained by diluting an anti-Ras (G12D Mutant Specific) antibody and an anti-3-actin antibody 1,000-fold with a blocking solution was added at 20 μL per well as a primary antibody. The plate was allowed to stand overnight at 4° C.
The next day, the plate was centrifuged to remove the supernatant. PBS was added at […], and the supernatant was removed to thus wash each well. The washing was performed twice in total. The supernatant was removed by centrifugation, and a solution obtained by diluting Donkey anti-Mouse IgG H&L (TRDye 680RD) (from Li—COR Biosciences) and Goat anti-Rabbit IgG H&L (IRDye 800CW) (from Li—COR Biosciences) 1,000-fold with a blocking solution was added at 20 μL per well as a secondary antibody. After allowing to stand for 1 hour at room temperature, the supernatant was removed. PBS was added at 25 μL per well, and the supernatant was removed to thus wash each well. The washing was performed twice in total. After removing the supernatant by centrifuging the plate, the plate was dried as it was with air at room temperature for 2 hours or more, and the 700-nm and 800-nm fluorescent signals were measured with Aerius (from LI-COR Biosciences).
With the signaling value at the time of addition of DMSO corrected with the signaling value of β-actin taken as 100% and with the signaling value at the time of addition of 10 μM of the compound of Example No. 26 taken as 0%, the 50% degradation values (DC50) of the amounts of KRAS were calculated by Sigmoid-Emax model nonlinear regression analysis. The molecular weights of the test compounds were calculated as the molecular weights of the trihydrochloride for Example No. 30, the tetrahydrochloride for Example No. 46 and the free forms forming no salt for the remaining Example Nos. The results for some test compounds of the formula (I) are shown in Table 2.
A general note: In an ELISA, binding on a coated surface is turned into a signal by an enzyme label.
For the compound `Cc1ncsc1-c1ccc([C@@H](CO)NC(=O)[C@@H]2C[C@@H](O)CN2C(=O)[C@H](C(C)C)n2cc(-c3ccc(COc4c(-c5c(C)c(F)cc6[nH]ncc56)c(C5CC5)cc5c(N6C[C@@H]7C[C@H]6CN7)nc(OC6CCOCC6)nc45)cc3)nn2)cc1` [Example 68], the half-maximal degradation concentration (DC50) turned out to be 1390 nM.
The figure for `Cc1ncsc1-c1ccc([C@H](CO)NC(=O)[C@@H]2C[C@@H](O)CN2C(=O)[C@H](C(C)C)n2cc(-c3ccc(COc4c(-c5c(C)c(F)cc6[nH]ncc56)c(C5CC5)cc5c(N6C[C@@H]7C[C@H]6CN7)nc(O[C@H]6CCN(CCO)C6)nc45)cc3)nn2)cc1` [Example 31] is 138 nM; for `CC[C@@H](C)Oc1nc(N2C[C@@H]3C[C@H]2CN3)c2cc(C3CC3)c(-c3c(C)c(F)cc4[nH]ncc34)c(OCc3ccc(-c4cn([C@H](C(=O)N5C[C@H](O)C[C@H]5C(=O)N[C@@H](CO)c5ccc(-c6scnc6C)cc5)C(C)C)nn4)cc3)c2n1` [Example 43] it is 10 nM; for `Cc1ncsc1-c1ccc([C@H](CO)NC(=O)[C@@H]2C[C@@H](O)CN2C(=O)[C@H](C(C)C)n2cc(-c3ccc(COc4c(-c5c(C)c(F)cc6[nH]ncc56)c(C5CC5)cc5c(N6C[C@@H]7C[C@H]6CN7)nc(O[C@H](C)CN(C)C)nc45)cc3)nn2)cc1` [Example 46] it is 37 nM.
Under `CO[C@@H](C)COc1nc(N2C[C@@H]3C[C@H]2CN3)c2cc(C3CC3)c(-c3c(C)c(F)cc4[nH]ncc34)c(OCc3ccc(-c4cn([C@H](C(=O)N5C[C@H](O)C[C@H]5C(=O)N[C@@H](CO)c5ccc(N6CCOC6=O)cc5)C(C)C)nn4)cc3)c2n1` [Example 59] stands 45 nM; under `COC[C@H](CN1CCOCC1)Oc1nc(N2C[C@@H]3C[C@H]2CN3)c2cc(C3CC3)c(-c3c(C)c(F)cc4[nH]ncc34)c(OCc3ccc(-c4cn([C@H](C(=O)N5C[C@H](O)C[C@H]5C(=O)N[C@@H](CO)c5ccc(-c6scnc6C)cc5)C(C)C)nn4)cc3)c2n1` [Example 55], 24 nM; under `Cc1ncsc1-c1ccc([C@H](CO)NC(=O)[C@@H]2C[C@@H](O)CN2C(=O)[C@H](C(C)C)n2cc(-c3ccc(COc4c(-c5c(C)c(F)cc6[nH]ncc56)c(C5CC5)cc5c(N6C[C@@H]7C[C@H]6CN7)nc(OC[C@H]6CCOC6)nc45)cc3)nn2)cc1` [Example 51], 11 nM.
Regarding `Cc1ncsc1-c1ccc([C@H](CO)NC(=O)[C@@H]2C[C@@H](O)CN2C(=O)[C@H](C(C)C)n2cc(-c3ccc(COc4c(-c5c(C)c(F)cc6[nH]ncc56)c(C5CC5)cc5c(N6C[C@@H]7C[C@H]6CN7)nc(OC[C@H](C)N6CCOCC6)nc45)cc3)nn2)cc1` [Example 65], the DC50 was 14 nM.
Under `Cc1ncsc1-c1ccc([C@H](CO)NC(=O)[C@@H]2C[C@@H](O)CN2C(=O)[C@H](C(C)C)n2cc(-c3ccc(COc4c(-c5c(C)c(F)cc6[nH]ncc56)c(C5CC5)cc5c(N6C[C@@H]7C[C@H]6CN7)nc(OC[C@@H]6CCCN6C)nc45)cc3)nn2)cc1` [Example 57] stands 134 nM.
The compound `CO[C@H](C)COc1nc(N2C[C@@H]3C[C@H]2CN3)c2cc(C3CC3)c(-c3c(C)c(F)cc4[nH]ncc34)c(OCc3ccc(-c4cn([C@H](C(=O)N5C[C@H](O)C[C@H]5C(=O)N[C@@H](CO)c5ccc(-c6scnc6C)cc5)C(C)C)nn4)cc3)c2n1` [Example 47] showed a DC50 of 13 nM.
The compound `Cc1ncsc1-c1ccc([C@H](CO)NC(=O)[C@@H]2C[C@@H](O)CN2C(=O)[C@H](C(C)C)n2cc(-c3ccc(COc4c(-c5c(C)c(F)cc6[nH]ncc56)c(C5CC5)cc5c(N6C[C@@H]7C[C@H]6CN7)nc(O[C@H](C)CN6CCOCC6)nc45)cc3)nn2)cc1` [Example 45] yielded a DC50 of 15 nM.
The figure for `Cc1c(F)cc2[nH]ncc2c1-c1c(C2CC2)cc2c(N3C[C@@H]4C[C@H]3CN4)nc(OC3CCOCC3)nc2c1OCc1ccc(-c2cn([C@H](C(=O)N3C[C@H](O)C[C@H]3C(=O)N[C@@H](CO)c3ccc(-n4ccnc4C)cc3)C(C)C)nn2)cc1` [Example 69] is 31 nM.
Under `CO[C@@H](C)[C@H](C)Oc1nc(N2C[C@@H]3C[C@H]2CN3)c2cc(C3CC3)c(-c3c(C)c(F)cc4[nH]ncc34)c(OCc3ccc(-c4cn([C@H](C(=O)N5C[C@H](O)C[C@H]5C(=O)N[C@@H](CO)c5ccc(-c6scnc6C)cc5)C(C)C)nn4)cc3)c2n1` [Example 41] stands 9 nM; under `Cc1ncsc1-c1ccc([C@H](CO)NC(=O)[C@@H]2C[C@@H](O)CN2C(=O)[C@H](C(C)C)n2cc(-c3ccc(COc4c(-c5c(C)c(F)cc6[nH]ncc56)c(C5CC5)cc5c(N6C[C@@H]7C[C@H]6CN7)nc(O[C@@H]6CCN(CC(F)F)C6)nc45)cc3)nn2)cc1` [Example 34], 24 nM; under `CO[C@H](C)[C@@H](C)Oc1nc(N2C[C@@H]3C[C@H]2CN3)c2cc(C3CC3)c(-c3c(C)c(F)cc4[nH]ncc34)c(OCc3ccc(-c4cn([C@H](C(=O)N5C[C@H](O)C[C@H]5C(=O)N[C@@H](CO)c5ccc(-c6scnc6C)cc5)C(C)C)nn4)cc3)c2n1` [Example 39], 6 nM.
Under `Cc1c(F)cc2[nH]ncc2c1-c1c(C2CC2)cc2c(N3C[C@@H]4C[C@H]3CN4)nc(OC3CCOCC3)nc2c1OCc1ccc(-c2cn([C@H](C(=O)N3C[C@H](O)C[C@H]3C(=O)N[C@@H](CO)c3cccc(F)c3)C(C)C)nn2)cc1` [Example 63] stands 70 nM; under `Cc1ncsc1-c1ccc([C@H](CO)NC(=O)[C@@H]2C[C@@H](O)CN2C(=O)[C@H](C(C)C)n2cc(-c3ccc(COc4c(-c5c(C)c(F)cc6[nH]ncc56)c(C5CC5)cc5c(N6C[C@@H]7C[C@H]6CN7)nc(OC[C@H]6CCOC6)nc45)cc3)nn2)cc1` [Example 52], 10 nM; under `CO[C@@H](C)COc1nc(N2C[C@@H]3C[C@H]2CN3)c2cc(C3CC3)c(-c3c(C)c(F)cc4[nH]ncc34)c(OCc3ccc(-c4cn([C@H](C(=O)N5C[C@H](O)C[C@H]5C(=O)N[C@@H](CO)c5ccc(-c6scnc6C)cc5)C(C)C)nn4)cc3)c2n1` [Example 48], 4 nM.
`Cc1ncsc1-c1ccc([C@H](CO)NC(=O)[C@@H]2C[C@@H](O)CN2C(=O)[C@H](C(C)C)n2cc(-c3ccc(COc4c(-c5c(C)c(F)cc6[nH]ncc56)c(C5CC5)cc5c(N6C[C@@H]7C[C@H]6CN7)nc(OCC67CCCN6CCC7)nc45)cc3)nn2)cc1` [Example 44] showed a DC50 of 111 nM.
The compound `Cc1ncsc1-c1ccc([C@H](CO)NC(=O)[C@@H]2C[C@@H](O)CN2C(=O)[C@H](C(C)C)n2cc(-c3ccc(COc4c(-c5c(C)c(F)cc6[nH]ncc56)c(C5CC5)cc5c(N6C[C@@H]7C[C@H]6CN7)nc(NCCO)nc45)cc3)nn2)cc1` [Example 66] displayed a DC50 of 250 nM.
Under `COCC1(COc2nc(N3C[C@@H]4C[C@H]3CN4)c3cc(C4CC4)c(-c4c(C)c(F)cc5[nH]ncc45)c(OCc4ccc(-c5cn([C@H](C(=O)N6C[C@H](O)C[C@H]6C(=O)N[C@@H](CO)c6ccc(-c7scnc7C)cc6)C(C)C)nn5)cc4)c3n2)CC1` [Example 62] stands 10 nM.
